Inconclusive results and toxic doses are left out.
Test system: L1210 leukemia ip in BDF1 mice, survival T/C
Assay: NCI In Vivo Anticancer Drug Screen. Data for tumor model L1210 Leukemia (intraperitoneal) in B6D2F1 (BDF1) mice
Conditions: endpoint: mean survival time, higher = longer survival
Method in brief: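 Survival endpoint. Drug-treated group vs vehicle group, expressed as T divided by C. Tumor passaged by transplantation.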

[1] = dose: 100.0 mg/kg/injection, schedule: Q01DX009 (ip), vehicle: Klucel (hydroxypropylcellulose) (HPC)
[2] = dose: 200.0 mg/kg/injection, schedule: Q01DX009 (ip), vehicle: Klucel (hydroxypropylcellulose) (HPC)
[3] = dose: 400.0 mg/kg/injection, schedule: Q01DX009 (ip), vehicle: Klucel (hydroxypropylcellulose) (HPC)
[4] = dose: 25.0 mg/kg/injection, schedule: Q01DX009 (ip), vehicle: saline with Tween-80
[5] = dose: 50.0 mg/kg/injection, schedule: Q01DX009 (ip), vehicle: saline with Tween-80
[6] = dose: 100.0 mg/kg/injection, schedule: Q01DX009 (ip), vehicle: saline with Tween-80
[7] = dose: 100.0 mg/kg/injection, schedule: Q04DX003 (ip), vehicle: Klucel (hydroxypropylcellulose) (HPC)
[8] = dose: 200.0 mg/kg/injection, schedule: Q04DX003 (ip), vehicle: Klucel (hydroxypropylcellulose) (HPC)
[9] = dose: 400.0 mg/kg/injection, schedule: Q04DX003 (ip), vehicle: Klucel (hydroxypropylcellulose) (HPC)
[10] = dose: 100.0 mg/kg/injection, schedule: Q04DX003 (ip), vehicle: saline with Tween-80
[11] = dose: 200.0 mg/kg/injection, schedule: Q04DX003 (ip), vehicle: saline with Tween-80
[12] = dose: 400.0 mg/kg/injection, schedule: Q04DX003 (ip), vehicle: saline with Tween-80
[13] = dose: 100.0 mg/kg/injection, schedule: Q04DX003 (ip), vehicle: saline
[14] = dose: 200.0 mg/kg/injection, schedule: Q04DX003 (ip), vehicle: saline
[15] = dose: 400.0 mg/kg/injection, schedule: Q04DX003 (ip), vehicle: saline
[16] = dose: 200.0 mg/kg/injection, schedule: Q01DX009 (ip), vehicle: saline with Tween-80
[17] = dose: 400.0 mg/kg/injection, schedule: Q01DX009 (ip), vehicle: saline with Tween-80
[18] = dose: 100.0 mg/kg/injection, schedule: Q01DX009 (ip), vehicle: saline
[19] = dose: 200.0 mg/kg/injection, schedule: Q01DX009 (ip), vehicle: saline

CCOC(=O)/C=C(/CC(=O)OCC)OCC
T/C (dose: 50.0 mg/kg/injection, schedule: Q01DX005 (ip), vehicle: saline): 104 % of control | T/C (dose: 100.0 mg/kg/injection, schedule: Q01DX005 (ip), vehicle: saline): 94 % of control | T/C (dose: 200.0 mg/kg/injection, schedule: Q01DX005 (ip), vehicle: saline): 96 % of control | T/C (dose: 400.0 mg/kg/injection, schedule: Q01DX005 (ip), vehicle: saline): 100 % of control

CCOP(=O)(OCC)C(=O)N(CC)CC
T/C [1]: 101 % of control | T/C [2]: 90 % of control | T/C [3]: 91 % of control

O=C(Nc1ccc(C2=NCCN2)cc1)c1ccc(C(=O)Nc2ccc(C3=NCCN3)cc2)c(F)c1
T/C (dose: 2.75 mg/kg/injection, schedule: Q01DX Z (ip), vehicle: carboxymethylcellulose (CMC)): 119 % of control | T/C (dose: 11.0 mg/kg/injection, schedule: Q01DX Z (ip), vehicle: carboxymethylcellulose (CMC)): 122 % of control | T/C (dose: 22.0 mg/kg/injection, schedule: Q01DX Z (ip), vehicle: carboxymethylcellulose (CMC)): 227 % of control | T/C (dose: 31.0 mg/kg/injection, schedule: Q01DX Z (oral), vehicle: carboxymethylcellulose (CMC)): 100 % of control | T/C (dose: 45.0 mg/kg/injection, schedule: Q01DX Z (ip), vehicle: carboxymethylcellulose (CMC)): 291 % of control | T/C (dose: 62.0 mg/kg/injection, schedule: Q01DX Z (oral), vehicle: carboxymethylcellulose (CMC)): 101 % of control | T/C (dose: 90.0 mg/kg/injection, schedule: Q01DX Z (ip), vehicle: carboxymethylcellulose (CMC)): 167 % of control | T/C (dose: 112.0 mg/kg/injection, schedule: Q01DX Z (oral), vehicle: carboxymethylcellulose (CMC)): 105 % of control | T/C (dose: 180.0 mg/kg/injection, schedule: Q01DX Z (ip), vehicle: carboxymethylcellulose (CMC)): 94 % of control | T/C (dose: 225.0 mg/kg/injection, schedule: Q01DX Z (oral), vehicle: carboxymethylcellulose (CMC)): 103 % of control

OCC1CC(n2cnc3c(NO)ncnc32)C(O)C1O (centres undefined)
T/C [4]: 103 % of control | T/C [5]: 92 % of control | T/C (dose: 75.0 mg/kg/injection, schedule: Q01DX009 (ip), vehicle: saline with Tween-80): 86 % of control

O=C(Cn1cc[n+](CC(=O)c2ccccc2)c1)c1ccccc1
T/C [4]: 98 % of control | T/C [5]: 90 % of control | T/C [6]: 102 % of control

CCC(C(=O)c1cccs1)C(O)(C(F)(F)F)C(F)(F)F (centres undefined)
T/C (dose: 100.0 mg/kg/injection, schedule: Q01DX001 (ip), vehicle: Klucel (hydroxypropylcellulose) (HPC)): 102 % of control | T/C (dose: 200.0 mg/kg/injection, schedule: Q01DX001 (ip), vehicle: Klucel (hydroxypropylcellulose) (HPC)): 97 % of control | T/C (dose: 400.0 mg/kg/injection, schedule: Q01DX001 (ip), vehicle: Klucel (hydroxypropylcellulose) (HPC)): 94 % of control

COc1cc(NC(=O)Nc2c(C)cc(I)cc2C(=O)O)c(I)cc1I
T/C (dose: 75.0 mg/kg/injection, schedule: Q01DX001 (ip), vehicle: other): 87 % of control | T/C (dose: 150.0 mg/kg/injection, schedule: Q01DX001 (ip), vehicle: other): 92 % of control | T/C (dose: 300.0 mg/kg/injection, schedule: Q01DX001 (ip), vehicle: other): 91 % of control

Nc1ccccc1S(=O)(=O)Nc1ccccc1
T/C [1]: 98 % of control | T/C [7]: 92 % of control | T/C [2]: 95 % of control | T/C [8]: 97 % of control | T/C [3]: 87 % of control | T/C [9]: 100 % of control

O=c1[nH]c2cccnc2c(=O)n1O
T/C (dose: 175.0 mg/kg/injection, schedule: Q04DX003 (ip), vehicle: carboxymethylcellulose (CMC)): 108 % of control | T/C (dose: 350.0 mg/kg/injection, schedule: Q04DX003 (ip), vehicle: carboxymethylcellulose (CMC)): 92 % of control

O=C(/C(=C\c1ccc(Cl)c(Cl)c1)c1ccccc1)c1ccc(O)cc1
T/C (dose: 100.0 mg/kg/injection, schedule: Q01DX001 (ip), vehicle: carboxymethylcellulose (CMC)): 90 % of control | T/C (dose: 200.0 mg/kg/injection, schedule: Q01DX001 (ip), vehicle: carboxymethylcellulose (CMC)): 101 % of control | T/C (dose: 400.0 mg/kg/injection, schedule: Q01DX001 (ip), vehicle: carboxymethylcellulose (CMC)): 95 % of control

C/C(=N\O)C1(C)CC=CCC1CO (centres undefined)
T/C [10]: 101 % of control | T/C [11]: 101 % of control | T/C [12]: 96 % of control

Cc1ccc(NC(=S)N2CCC(CCCC3CCN(C(=S)Nc4ccc(C)c(C)c4)CC3)CC2)cc1C
T/C [1]: 93 % of control | T/C [7]: 88 % of control | T/C [2]: 90 % of control | T/C [8]: 98 % of control | T/C [3]: 90 % of control | T/C [9]: 92 % of control

CC(CO)(CO)[N+](=O)[O-]
T/C [13]: 101 % of control | T/C [14]: 96 % of control | T/C [15]: 93 % of control

C=CCCCCCCCCCC(CCCCCC)C(=O)O (centres undefined)
T/C (dose: 100.0 mg/kg/injection, schedule: Q01DX001 (ip), vehicle: saline with Tween-80): 101 % of control | T/C (dose: 200.0 mg/kg/injection, schedule: Q01DX001 (ip), vehicle: saline with Tween-80): 111 % of control | T/C (dose: 400.0 mg/kg/injection, schedule: Q01DX001 (ip), vehicle: saline with Tween-80): 92 % of control

COc1cc(N)nc(OC)n1
T/C [6]: 98 % of control | T/C [16]: 98 % of control | T/C [17]: 97 % of control

COc1cc2c(c(OC)c1OC)-c1ccc(N)c(=O)cc1[C@@H](NC(C)=O)CC2
T/C (dose: 0.5 mg/kg/injection, schedule: Q01DX015 (ip), vehicle: saline): 116 % of control | T/C (dose: 1.0 mg/kg/injection, schedule: Q01DX015 (ip), vehicle: saline): 118 % of control | T/C (dose: 2.0 mg/kg/injection, schedule: Q01DX001 (ip), vehicle: saline): 112 % of control | T/C (dose: 2.0 mg/kg/injection, schedule: Q01DX015 (ip), vehicle: saline): 92 % of control | T/C (dose: 4.0 mg/kg/injection, schedule: Q01DX001 (ip), vehicle: saline): 100 % of control | T/C (dose: 4.0 mg/kg/injection, schedule: Q01DX015 (ip), vehicle: saline): 116 % of control | T/C (dose: 8.0 mg/kg/injection, schedule: Q01DX001 (ip), vehicle: saline): 98 % of control | T/C (dose: 16.0 mg/kg/injection, schedule: Q01DX001 (ip), vehicle: saline): 104 % of control

O=C(O)COCC(F)(F)C(F)(F)C(F)(F)COCC(=O)O
T/C [18]: 92 % of control | T/C [13]: 97 % of control | T/C [19]: 97 % of control | T/C [14]: 98 % of control | T/C (dose: 400.0 mg/kg/injection, schedule: Q01DX009 (ip), vehicle: saline): 110 % of control | T/C [15]: 93 % of control

O=C(O)/C(=C\c1ccccc1)c1ccc([N+](=O)[O-])cc1
T/C [10]: 103 % of control | T/C [11]: 92 % of control | T/C [12]: 92 % of control

O=Cc1ccc2cccnc2c1O
T/C (dose: 50.0 mg/kg/injection, schedule: Q01DX001 (ip), vehicle: saline): 114 % of control | T/C (dose: 100.0 mg/kg/injection, schedule: Q01DX001 (ip), vehicle: saline): 108 % of control | T/C (dose: 200.0 mg/kg/injection, schedule: Q01DX001 (ip), vehicle: saline): 93 % of control

O=C(NCCCN1CCOCC1)C(Oc1ccccc1)Oc1ccccc1
T/C (dose: 6.25 mg/kg/injection, schedule: Q01DX009 (ip), vehicle: Klucel (hydroxypropylcellulose) (HPC)): 91 % of control | T/C (dose: 12.5 mg/kg/injection, schedule: Q01DX009 (ip), vehicle: Klucel (hydroxypropylcellulose) (HPC)): 98 % of control | T/C (dose: 25.0 mg/kg/injection, schedule: Q01DX009 (ip), vehicle: Klucel (hydroxypropylcellulose) (HPC)): 100 % of control | T/C (dose: 50.0 mg/kg/injection, schedule: Q01DX009 (ip), vehicle: Klucel (hydroxypropylcellulose) (HPC)): 89 % of control

C=CCOCC(O)CN(C)CC1CCCO1 (centres undefined)
T/C [18]: 95 % of control | T/C [13]: 98 % of control | T/C [19]: 95 % of control | T/C [14]: 86 % of control

CCOc1ccc(/C=N/NC(=O)CC2CCCCC2)cc1OC
T/C [6]: 90 % of control | T/C [16]: 88 % of control | T/C [17]: 90 % of control

Reference: PubChem BioAssay AID248 (DTP/NCI, 2004)
